Results as given in US20200308192A1, “NOVEL THIAZOLO[5,4-D]PYRIMIDINE DERIVATIVES AS INVERSE AGONISTS OF A2A ADENOSINE RECEPTORS” (Universita degli Studi di Ferrara, priority 2016, published 2020).
Like-named read-outs stand apart in the source and are kept apart here.

Experiments:
[1] = biological target: T1, human adenosine A2B receptor (Homo sapiens, UniProt P29275); test: cAMP assay, inhibition of NECA-stimulated cAMP levels in hA2B CHO cells; settings: read-out: Receptor hA2B IC50; cAMP stimulated by NECA (100 nM); mean ± SEM
T1 sequence (P29275 1-332): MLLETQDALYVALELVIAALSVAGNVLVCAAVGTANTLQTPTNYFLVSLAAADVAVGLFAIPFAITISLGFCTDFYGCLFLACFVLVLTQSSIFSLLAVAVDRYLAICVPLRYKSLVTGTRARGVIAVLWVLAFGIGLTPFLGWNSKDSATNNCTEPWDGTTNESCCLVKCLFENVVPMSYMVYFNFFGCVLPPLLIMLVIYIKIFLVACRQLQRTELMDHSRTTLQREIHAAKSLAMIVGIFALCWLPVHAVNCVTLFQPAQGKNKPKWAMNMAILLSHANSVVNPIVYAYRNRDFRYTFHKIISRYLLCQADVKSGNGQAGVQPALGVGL

[2] = biological target: T2, human adenosine A2A receptor (Homo sapiens, UniProt P29274); test: cAMP assay in hA2A CHO cells, basal or with CGS 21680; format: cell-based; design: expressed in transfected cells; host or cells: CHO cells; settings: for IC50: mean ± SEM
Procedure: For the membranes preparation the culture medium was removed, and the cells were washed with a saline phosphate-buffered solution collected with hypotonic buffer (5 mM Tris HCl, 1 mM EDTA, pH 7.4).
CHO cells transfected with the adenosine receptors were washed with a phosphate-buffered saline solution, detached with trypsin and centrifuged for 10 minutes at 200 g. […] The reaction was terminated by addition of cold 6% trichloroacetic acid (TCA). The TCA suspension was centrifuged at 2000 g for 10 minutes at 4° C. and the supernatant was extracted four times with diethyl ether with water. The final aqueous solution was tested for the cAMP levels by a competition protein binding assay with a cAMP-binding protein. The standard samples of cAMP (0-10 pmoli) were added to each test tube containing the incubation buffer (trizma base 0.1 M, aminophylline 8.0 mM, 2 mercaptoethanol 6.0 mM, pH 7.4) and [^3H]-cAMP. The binding protein previously prepared from beef adrenals, was added to the samples previously incubated at 4° C. for 150 minutes, and after the addition of charcoal were centrifuged at 2000 g for 10 min.
(§1) The statistical analysis of the data was performed using ANOVA followed by Dunnett's test. […] KH and KL were obtained by using a two sites binding model and Graph PAD Prism (San Diego, Calif., USA). The values of IC50 obtained in the cAMP assays were calculated by non-linear regression analysis using the equation for a sigmoid concentration-response curve. All data are expressed as the mean±SEM of four independent experiments each performed in duplicate for in vitro assays and n=8-10 mice/group for in vivo assays.

[3] = biological target: T2, human adenosine A2A receptor; test: Competition binding, [3H]-ZM 241385, hA2A CHO membranes
[4] = biological target: T3, human adenosine A1 receptor (Homo sapiens, UniProt P30542); test: Competition binding, [3H]-DPCPX, hA1 CHO membranes; settings: read-out: Receptor hA1 Ki, mean ± SEM
T3 sequence (P30542 1-326): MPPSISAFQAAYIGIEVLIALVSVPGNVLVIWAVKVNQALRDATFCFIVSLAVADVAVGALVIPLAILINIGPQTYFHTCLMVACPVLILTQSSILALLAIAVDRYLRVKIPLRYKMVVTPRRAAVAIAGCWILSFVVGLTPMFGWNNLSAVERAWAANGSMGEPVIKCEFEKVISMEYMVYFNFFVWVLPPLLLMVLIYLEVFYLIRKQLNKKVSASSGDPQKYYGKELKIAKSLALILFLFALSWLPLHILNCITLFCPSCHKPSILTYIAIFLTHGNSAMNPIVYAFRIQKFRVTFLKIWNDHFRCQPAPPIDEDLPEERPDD

[5] = biological target: T4, human adenosine A3 receptor (Homo sapiens, UniProt P0DMS8); test: Competition binding, [125I]-ABMECA, hA3 CHO membranes; settings: mean ± SEM
T4 construct: expressed in transfected cells; host or cells: CHO cells (membrane preparation)
T4 sequence (P0DMS8 1-318): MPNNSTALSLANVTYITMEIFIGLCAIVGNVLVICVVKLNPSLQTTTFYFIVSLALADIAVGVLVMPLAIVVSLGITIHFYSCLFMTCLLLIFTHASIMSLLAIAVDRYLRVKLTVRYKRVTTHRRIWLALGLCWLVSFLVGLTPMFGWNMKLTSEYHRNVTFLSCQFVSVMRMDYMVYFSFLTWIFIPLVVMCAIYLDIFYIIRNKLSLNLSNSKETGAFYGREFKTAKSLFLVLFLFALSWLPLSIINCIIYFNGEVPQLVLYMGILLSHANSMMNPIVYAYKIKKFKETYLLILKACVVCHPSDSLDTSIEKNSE

[6] = test system: Female CD1 mice; test: Writhing test (acetic acid-induced abdominal constrictions); format: in vivo; settings: for Dose-response curve, Writhing Test: P<0.001, one-way ANOVA
Procedure: Female CD1 mice (22-24 g) were obtained from Charles River (Milano, Italia). The animals were kept under standard environmental temperature conditions (22±2° C.) and under moisture-controlled conditions with 12 hours light/dark cycle and food and water ad libitum. The animals were acclimated to the laboratory settings for at least 1 hour before testing and were used only once throughout the experiments. All the procedures used in the present study were carried out in accordance with the European Communities Council Directives (86/609/EEC) and the National Laws and Policies (D.L.116/92) after authorization from the Italian Ministry for Health (4/2014-B). In addition, the experimental procedures were in agreement with the current guidelines for the care of laboratory animals and the ethical guidelines for investigations of experimental pain in conscious animals (Couto M. Methods Mol Biol 2011; 770:579-599).
The acetic acid-induced writhing response was performed after intraperitoneal injection of 10 ml/Kg of 0.6% acetic acid solution. The response to the abdominal constrictions induced by acetic acid was evaluated after the intraperitoneal injection of 10 ml/kg of a 0.6% solution of acetic acid. The compounds under evaluation were dissolved in DMSO and then diluted in a saline solution. The carrier consists of saline solution and 5% of DMSO. A writhe is indicated by stretching of the abdomen followed by the extension of the hind limbs. The animals (8 mice per group) were placed singly in a glass cylinder and the number of writhing episodes of abdominal contractions was counted in a 30 minutes period. The compounds were administered intraperitoneally 15 minutes before injection of acetic acid solution.
as §1

[7] = CGS 21680 (10 nM), read-out: IC50 cAMP, in presence of CGS 21680
[8] = CGS 21680 (10 nM), read-out: Emax cAMP, in presence of CGS 21680
[9] = basal cAMP, read-out: IC50 cAMP, in absence of CGS 21680
[10] = efficacy versus basal cAMP production, read-out: Emax cAMP, in absence of CGS 21680
[11] = read-out: Receptor hA2A Ki, [3H]-ZM 241385, single affinity value, mean ± SEM

T2 sequence (P29274 whole entry): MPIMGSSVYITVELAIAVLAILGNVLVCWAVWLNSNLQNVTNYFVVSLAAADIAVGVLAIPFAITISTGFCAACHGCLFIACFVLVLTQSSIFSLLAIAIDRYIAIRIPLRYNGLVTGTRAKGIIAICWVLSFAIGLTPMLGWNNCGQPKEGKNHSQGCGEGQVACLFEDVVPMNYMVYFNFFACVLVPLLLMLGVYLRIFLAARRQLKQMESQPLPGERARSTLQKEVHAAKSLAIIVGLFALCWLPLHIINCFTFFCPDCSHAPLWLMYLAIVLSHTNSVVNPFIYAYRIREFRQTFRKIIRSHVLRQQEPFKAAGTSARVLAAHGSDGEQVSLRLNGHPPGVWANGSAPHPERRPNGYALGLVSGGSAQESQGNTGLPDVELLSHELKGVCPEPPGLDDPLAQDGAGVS

## COc1ccc(CNc2nc(N)c3nc(-c4ccco4)sc3n2)cc1 [Compound 2, 2-(furan-2-yl)-N^5-(4-methoxybenzyl)[1,3]thiazolo[5,4-d]pyrimidin-5,7-diamine]
[1]
  IC50: 0.283 ± 0.027 µM
[2]; [7]
  IC50: 0.123 ± 0.011 µM
[2]; [8]
  Emax: 116 ± 11%
[2]; [9]
  IC50: 0.187 ± 0.016 µM
[2]; [10]
  Emax: 38 ± 4%
[3]; [11]
  Ki: 0.171 ± 0.016 µM
[4]
  Ki: 0.163 ± 0.012 µM
[5]
  Ki: 0.381 ± 0.037 µM

## COc1cccc(CNc2nc(N)c3nc(-c4ccco4)sc3n2)c1 [Compound 3, 2-(furan-2-yl)-N^5-(3-methoxybenzyl)[1,3]thiazolo[5,4-d]pyrimidin-5,7-diamine]
[6]
  Dose-response curve, Writhing Test: dose-dependent effect
[6]; intraperitoneal
  Anti-nociceptive activity, Writhing Test: potency similar to morphine
[1]
  IC50: 0.452 ± 0.042 µM
[3]
  Ki: 0.026 ± 0.002 µM
[4]
  Ki: 0.00816 ± 0.00072 µM
[5]
  Ki: 0.092 ± 0.008 µM

## Nc1nc(NCc2cccc(O)c2)nc2sc(-c3ccco3)nc12 [Compound 4, 3-(((7-amino-2-(furan-2-yl)[1,3]thiazolo[5,4-d]pyrimidin-5-yl)amino)methyl) phenol]
[1]
  IC50: 0.024 ± 0.003 µM
[2]; [7]
  IC50: 0.022 ± 0.002 µM
[2]; [8]
  Emax: 139 ± 13%
[2]; [9]
  IC50: 0.027 ± 0.002 µM
[2]; [10]
  Emax: 68 ± 7%
[3]; [11]
  Ki: 0.02 ± 0.002 µM
[4]
  Ki: 0.027 ± 0.003 µM
[5]
  Ki: 0.055 ± 0.004 µM

## Nc1nc(NCc2ccccn2)nc2sc(-c3ccco3)nc12 [Compound 8, 2-(furan-2-yl)-N^5-(pyridin-2-ylmethyl)[1,3]thiazolo[5,4-d]pyrimidin-5,7-diamine]
[1]
  IC50: 0.095 ± 0.009 µM
[2]; [7]
  IC50: 0.0013 ± 0.0001 µM
[2]; [8]
  Emax: 128 ± 11%
[2]; [9]
  IC50: 0.00068 ± 6e-05 µM
[2]; [10]
  Emax: 54 ± 5%
[3]; [11]
  Ki: 0.00042 ± 4e-05 µM
[4]
  Ki: 0.028 ± 0.003 µM
[5]
  Ki: 0.059 ± 0.005 µM

## Nc1nc(NCc2cccc(F)c2)nc2sc(-c3ccco3)nc12 [Compound 9, N^5-(3-fluorobenzyl)-2-(furan-2-yl)[1,3]thiazolo[5,4-d]pyrimidin-5,7-diamine]
[1]
  IC50: 0.103 ± 0.01 µM
[3]; [11]
  Ki: 0.00082 ± 7e-05 µM
[4]
  Ki: 0.00851 ± 0.00076 µM
[5]
  Ki: 0.035 ± 0.004 µM

## CCCNc1nc(N)c2nc(-c3ccco3)sc2n1 [Compound 11, 2-(furan-2-yl)-N^5-propyl-[1,3]thiazolo[5,4-d]pyrimidin-5,7-diamine]
[1]
  IC50: 0.323 ± 0.028 µM
[3]; [11]
  Ki: 0.017 ± 0.002 µM
[4]
  Ki: 0.064 ± 0.01 µM
[5]
  Ki: 0.035 ± 0.004 µM

## CCCCNc1nc(N)c2nc(-c3ccco3)sc2n1 [Compound 12, N^5-butyl-2-(furan-2-yl)[1,3]thiazolo[5,4-d]pyrimidin-5,7-diamine]
[1]
  IC50: 0.185 ± 0.017 µM
[3]; [11]
  Ki: 0.00821 ± 0.00078 µM
[4]
  Ki: 0.041 ± 0.005 µM
[5]
  Ki: 0.023 ± 0.003 µM

## Nc1nc(NCc2ccsc2)nc2sc(-c3ccco3)nc12 [Compound 13, 2-(furan-2-yl)-N^5-(thiophen-3-ylmethyl)[1,3]thiazolo[5,4-d]pyrimidin-5,7-diamine]
[1]
  IC50: 0.00896 ± 0.00082 µM
[2]; [7]
  IC50: 0.00041 ± 3e-05 µM
[2]; [8]
  Emax: 137 ± 13%
[2]; [9]
  IC50: 0.00036 ± 4e-05 µM
[2]; [10]
  Emax: 67 ± 6%
[3]; [11]
  Ki: 0.00025 ± 2e-05 µM
[4]
  Ki: 0.00812 ± 0.00071 µM
[5]
  Ki: 0.00314 ± 0.00029 µM

## Nc1nc(NCc2ccncc2)nc2sc(-c3ccco3)nc12 [Compound 14, 2-(furan-2-yl)-N^5-(pyridin-4-ylmethyl)[1,3]thiazolo[5,4-d]pyrimidin-5,7-diamine]
[1]
  IC50: 0.033 ± 0.002 µM
[2]; [7]
  IC50: 0.0187 ± 0.0016 µM
[2]; [8]
  Emax: 122 ± 10%
[2]; [9]
  IC50: 0.0153 ± 0.0012 µM
[2]; [10]
  Emax: 43 ± 4%
[3]; [11]
  Ki: 0.012 ± 0.001 µM
[4]
  Ki: 0.047 ± 0.004 µM
[5]
  Ki: 0.827 ± 0.048 µM

## Nc1nc(NCc2cnccn2)nc2sc(-c3ccco3)nc12 [Compound 15, 2-(furan-2-yl)-N^5-(pyrazin-2-ylmethyl)[1,3]thiazolo[5,4-d]pyrimidin-5,7-diamine]
[1]
  IC50: 0.0132 ± 0.0012 µM
[2]; [7]
  IC50: 0.0113 ± 0.00096 µM
[2]; [8]
  Emax: 117 ± 10%
[2]; [9]
  IC50: 0.00827 ± 0.00072 µM
[2]; [10]
  Emax: 48 ± 4%
[3]; [11]
  Ki: 0.00514 ± 0.00048 µM
[4]
  Ki: 0.025 ± 0.004 µM
[5]
  Ki: 0.157 ± 0.014 µM

## Nc1nc(NCCc2ccco2)nc2sc(-c3ccco3)nc12 [Compound 16, 2-(furan-2-yl)-N^5-(2-(furan-2-yl)ethyl)[1,3]thiazolo[5,4-d]pyrimidin-5,7-diamine]
[1]
  IC50: 0.014 ± 0.001 µM
[2]; [7]
  IC50: 0.00426 ± 0.00037 µM
[2]; [8]
  Emax: 121 ± 11%
[2]; [9]
  IC50: 0.00293 ± 0.00022 µM
[2]; [10]
  Emax: 56 ± 6%
[3]; [11]
  Ki: 0.00215 ± 0.00019 µM
[4]
  Ki: 0.00524 ± 0.00046 µM
[5]
  Ki: 0.023 ± 0.002 µM

## Nc1nc(NCCc2cccnc2)nc2sc(-c3ccco3)nc12 [Compound 17, 2-(furan-2-yl)-N^5-(2-(pyridin-3-yl)ethyl)[1,3]thiazolo[5,4-d]pyrimidin-5,7-diamine]
[1]
  IC50: 0.00421 ± 0.00032 µM
[2]; [7]
  IC50: 0.00035 ± 4e-05 µM
[2]; [8]
  Emax: 141 ± 14%
[2]; [9]
  IC50: 0.00029 ± 3e-05 µM
[2]; [10]
  Emax: 71 ± 7%
[3]; [11]
  Ki: 0.00024 ± 1e-05 µM
[4]
  Ki: 0.00261 ± 0.00022 µM
[5]
  Ki: 0.174 ± 0.011 µM

## CN1CC[C@]23c4c5ccc(O)c4O[C@H]2[C@@H](O)C=C[C@H]3[C@H]1C5 [morphine, reference compound]
[6]; Mus musculus, ip, intraperitoneal, 15 minutes before acetic acid
  ED50: 0.123 ± 0.01 mg/kg
[6]
  Dose-response curve, Writhing Test: dose-dependent effect
